The test system of series [1] is ICR male white mice. Briefly: Formalin test on mice. It counts as in vivo. As to conditions: oral, 100 mg/kg (positive control). The protocol: Tests are performed on ICR male white mice of 20-30 g body weight. Mice are divided into 4 groups (a control one and experimental ones) of 9 mice each. The tested HCRG21 peptide is dissolved in a sterile physiological saline solution and is administered intramuscularly at the doses of 0.1 and 1.0 mg/kg. Control animals receive the equivalent volume of sterile physiological saline solution. Ibuprofen at the dose of 100 mg/kg is used as a positive control and is administered to animals orally. 60 minutes later all mice are injected in a hinder paw pad with 20 μl of 2.5% formalin solution. Patterns of pain response are recorded immediately after the injection (a number of paw licking episodes and a hind paw withdrawal time) according to the following schedule:
1st period (acute): for 20 min after the injection patterns are recorded per 1 min with 6-minute intervals (0, 6, 12 and 18 min);
2nd period (tonic): 30 min after the formalin injection patterns are recorded for 20 min per 1 min with 6-minute intervals (30, 36, 42, 48 min).
The analgesic effect is evaluated by the decrease of the duration of pain response patterns relative to control animals (FIG. 9). The results are statistically processed, statistical significance of differences of the results of control and experimental group is determined using the Student's test.

The conditions of series [2]: phase I clinical trial data; cited from earlier work.
Series [3] deals with T1, TRPV1 (Homo sapiens, UniProt Q8NER1).
T1 construct: host or cells: human subjects (in vivo)
The settings on record: high dose (400 mg); cited from earlier work.

The conditions of series [4]: reduced only in part with repeated dosing; cited from earlier work.

Structures are written as SMILES.

T1 sequence (Q8NER1 whole entry): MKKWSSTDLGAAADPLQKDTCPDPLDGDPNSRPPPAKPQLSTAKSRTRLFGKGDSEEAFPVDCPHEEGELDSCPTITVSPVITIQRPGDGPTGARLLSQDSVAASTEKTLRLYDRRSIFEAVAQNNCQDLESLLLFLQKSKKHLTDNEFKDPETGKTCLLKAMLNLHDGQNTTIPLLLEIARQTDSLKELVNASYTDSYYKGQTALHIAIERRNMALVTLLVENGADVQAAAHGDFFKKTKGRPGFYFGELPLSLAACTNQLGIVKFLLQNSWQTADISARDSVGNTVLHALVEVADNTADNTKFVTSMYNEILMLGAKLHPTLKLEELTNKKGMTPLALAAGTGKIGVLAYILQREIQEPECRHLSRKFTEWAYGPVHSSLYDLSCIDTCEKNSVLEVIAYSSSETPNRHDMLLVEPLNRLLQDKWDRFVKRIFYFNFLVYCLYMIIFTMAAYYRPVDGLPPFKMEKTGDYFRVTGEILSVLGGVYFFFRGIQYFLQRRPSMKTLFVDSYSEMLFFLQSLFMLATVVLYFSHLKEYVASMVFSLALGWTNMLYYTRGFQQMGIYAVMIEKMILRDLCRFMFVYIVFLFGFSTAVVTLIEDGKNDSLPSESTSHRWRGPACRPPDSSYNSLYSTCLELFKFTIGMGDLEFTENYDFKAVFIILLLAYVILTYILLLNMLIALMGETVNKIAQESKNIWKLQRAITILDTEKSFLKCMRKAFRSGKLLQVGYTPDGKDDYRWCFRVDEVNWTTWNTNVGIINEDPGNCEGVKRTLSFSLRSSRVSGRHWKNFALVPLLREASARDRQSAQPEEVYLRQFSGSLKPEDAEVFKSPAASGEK

Turning to `CC(C)Cc1ccc(C(C)C(=O)O)cc1` (stereo not shown) [Ibuprofen, ibuprofen], the “analgesic properties compared with HCRG21” value in series [1] is reported as “concedes much to the HCRG21 peptide”. Regarding `O=C(Nc1ccccc1Br)N[C@@H]1CCN(c2ccc(C(F)(F)F)cn2)C1` [SB-705498], in series [2], the elimination half-life was 35 to 93 h. In series [3], the “pharmacodynamic activity in the reduction of inflammation induced by heat injuries, UV radiation and capsaicin” value was “evidences a target pharmacodynamic activity”. Take `CC(=O)Nc1nc2c(Oc3cc(-c4ccc(C(F)(F)F)cc4)ncn3)cccc2s1` [AMG-517]: in series [4], the “temperature increase in humans” value was “high and steady temperature increase”.

These data come from patent US20240189389A1, “DRUG WITH PROLONGED ANALGESIC ACTION” (priority 2020, published 2024).
